Assay results reported in US20010049373A1, “Materials and methods for killing nematodes and nematode eggs” (priority 2000, published 2001).

How the values were obtained:
Caenorhabditis elegans [1] = experiment: C. elegans L1 larvae dose-response, 5 day visual viability score (Examples 2 and 7); assay type: in vivo; design: key: Dead: only stiff L1s (no movement); Dead (L4): worms are dead, but at a later larval stage; majority of worms are L1 (based on size); majority of worms are L2 (based on size); majority of worms are L3 (based on size); majority of worms are L4 (based on size); AD: majority of worms are adult; #AD: 5 adult worms or less; B!: sterile (0-25 progeny); B: low broodsize (25-100 progeny); ˜B: moderate broodsize (100-250 progeny); <: reduced broodsize (250-500 progeny); OK: no effect (˜1000+ progeny)
Description: Caenorhabditis elegans adults were grown on Nematode Growth Medium (NGM) until they produced eggs, then the adults were removed.
The eggs were allowed to hatch, and the L1 larvae collected. See The Neniatode Caenorhabditis elegans (1988) Cold Spring Harbor Laboratory Press. Using a Matrix Programmable Pipette, the L1s were distributed into 96-well tissue culture plates, 20 L1 in 50 μl NGM per well. Antibiotic/Antimyotic was added to each well, and 1% by weight E. coli strain HB101. The subject anthelmintic compounds were stored at 5 mM in 100% DMSO. 0.7 μl of compounds 1-31 were added to the left-most column of wells to yield a final concentration of 70 μM in 1.4% DMSO, with 1.4% DMSO only as the control. The compounds were then subjected to 5 more 3-fold dilutions from left to right to yield 6 column concentrations of 70 μM, 23.3 μM, 7.8 μM, 2.6 μM, 0.9 μM, and 0.3 μM. Plates were stored in air-tight Rubbermaid plastic boxes at 20° C. The nematodes had cleared all control wells by day 4, and nematode viability was scored by visual examination under a 100× dissecting microscope on day 5. A visual viability scoring system was used as follows:
If several classes of worms exist in a well, then all classes are scored. If adults are present, then the brood score is also recorded. Thus, “L1/L2” would mean a mixture of L1's and L2's are present in the well. “L4/#AD/B” would mean that a mixture of L4's and adults are resent in the well. The “#AD” would mean that there are 6 or less adults, and the “B” would mean that there were 100 progeny or less.
Column VI has a compound concentration of 70 μM with sequential 3-fold dilutions reported in columns V2, V3, V4, V5, and V6, respectively, such that the V6 concentration was 0.3 μM.
(§1) The nematicidal activity of anthelmintic Compositions 48-118 were determined in accordance with the procedure outlined in Example 2.

Caenorhabditis elegans [2] = experiment: HTS runs (initial and follow-up): mOD, % Run and visual score (Table 3); assay type: in vivo; design: key to Initial HTS Run Visual Score / Follow-up HTS Run Visual Score: Dead: only stiff L1s (no movement); Dead (L4): worms are dead, but at a later larval stage; majority of worms are L1 (based on size); majority of worms are L2 (based on size); majority of worms are L3 (based on size); majority of worms are L4 (based on size); AD: majority of worms are adult; #AD: 5 adult worms or less; B!: sterile (0-25 progeny); B: low broodsize (25-100 progeny); ˜B: moderate broodsize (100-250 progeny); <: reduced broodsize (250-500 progeny); OK: no effect (˜1000+ progeny)
Description: as §1

[3] = 0.3 μM, viability scored day 5, Table 1
[4] = 2.6 μM, viability scored day 5, Table 1
[5] = 23.3 μM, viability scored day 5, Table 1
[6] = 70 μM, viability scored day 5, Table 1
[7] = 7.8 μM, viability scored day 5, Table 1
[8] = 0.9 μM, viability scored day 5, Table 1
[9] = 0.3 μM (procedure of Example 2), day 5, Table 3
[10] = 0.9 μM (procedure of Example 2), day 5, Table 3
[11] = 7.8 μM (procedure of Example 2), day 5, Table 3
[12] = 23.3 μM (procedure of Example 2), day 5, Table 3
[13] = 70 μM (procedure of Example 2), day 5, Table 3
[14] = 2.6 μM (procedure of Example 2), day 5, Table 3

Compound	5 Day Visual Score V6 (Caenorhabditis elegans [1]; [3])	5 Day Visual Score V4 (Caenorhabditis elegans [1]; [4])	5 Day Visual Score V2 (Caenorhabditis elegans [1]; [5])	5 Day Visual Score V1 (Caenorhabditis elegans [1]; [6])	5 Day Visual Score V3 (Caenorhabditis elegans [1]; [7])	Follow-up HTS Run % Run (Caenorhabditis elegans [2])	Follow-up HTS Run mOD (Caenorhabditis elegans [2])	Initial HTS Run % Run (Caenorhabditis elegans [2])	Initial HTS Run Visual Score (Caenorhabditis elegans [2])	Initial HTS Run mOD (Caenorhabditis elegans [2])	5 Day Visual Score V6 (Caenorhabditis elegans [1]; [9])	5 Day Visual Score V5 (Caenorhabditis elegans [1]; [10])	also measured
O=C(Nc1ccc(OC(F)(F)F)cc1)NC1CCC(c2nc(-c3ccccc3)no2)CC1 (centres unmarked) [AKC 107]	L2/Dead(L	Dead(L4)	Dead(L2/L3)	Dead									
O=C(Nc1ccc(Br)cc1)N1CCC(c2nc(-c3ccccc3)no2)CC1 [AKC 108]		L1	Dead	Dead	L1								
O=C(NCCc1ccccc1F)C1C(c2ccccc2Cl)=NOC1c1ccc(-c2ccccc2)cc1 (centres unmarked) [AKC 110]	L1	L1	L1	L1	L1								5 Day Visual Score V5 (Caenorhabditis elegans [1]; [8]): L1
COc1ccccc1-c1noc(C(C)CNC(=O)Nc2ccc(OC(F)(F)F)cc2)n1 (centres unmarked) [AKC 111]	OK (no effect (˜1000+ progeny))	Dead(L3/L	Dead	Dead	L2								
Cc1ccc(-c2noc(C3CCC(CNC(=O)Nc4ccc(OC(F)(F)F)cc4)CC3)n2)cc1C (centres unmarked) [AKC 112]	OK (no effect (˜1000+ progeny))												5 Day Visual Score V5 (Caenorhabditis elegans [1]; [8]): #AD/˜B
O=C(NCC1CCC(c2nc(-c3ccccc3)no2)CC1)Nc1ccc(OC(F)(F)F)cc1 (centres unmarked) [AKC 113]	L4/#AD/B	Dead(L2/L	Dead	Dead	Dead								
O=C(Nc1ccc(Br)cc1)NC1CCC(c2nc(-c3ccccc3)no2)CC1 (centres unmarked) [AKC 114]	B (low broodsize (25-100 progeny))	L3/Dead(L	L3/Dead(L4)	Dead	L3								
O=C(NCCCCCc1nc(-c2ccccc2)no1)Nc1ccc(OC(F)(F)F)cc1 [AKC 115]		Dead(L2)	Dead(L2/L3)	Dead	L2/Dead(L2)								5 Day Visual Score V5 (Caenorhabditis elegans [1]; [8]): Dead(L2/L
CC(C)(C)C1=NOC(c2ccc(-c3ccccc3)cc2)C1C(=O)NCCc1ccccc1F (centres unmarked) [AKC 120]	OK (no effect (˜1000+ progeny))			L1	L1								5 Day Visual Score V5 (Caenorhabditis elegans [1]; [8]): #AD/˜B
COc1ccc(C2=NOC(c3ccc(-c4ccccc4)cc3)C2C(=O)NCCc2ccccc2F)cc1 (centres unmarked) [AKC 121]	< (reduced broodsize (250-500 progeny))	#AD/˜B	L1	L1									
CCOc1ccc(C2ON=C(c3ccc(F)cc3)C2C(=O)NCCc2ccc(F)cc2)cc1 (centres unmarked) [AKC 122]	OK (no effect (˜1000+ progeny))		L1	Dead									
CCOc1ccc(C2ON=C(c3ccc(N(C)C)cc3)C2C(=O)NCCc2ccc(F)cc2)cc1 (centres unmarked) [AKC 123]	#AD/˜B	< (reduced broodsize (250-500 progeny))		L1									
CCOc1cccc(C2ON=C(c3ccccc3OCC)C2C(=O)NCCc2ccc(OC)c(OCC)c2)c1 (centres unmarked) [AKC 124]	L4/#AD/B	L4/#AD/B											5 Day Visual Score V5 (Caenorhabditis elegans [1]; [8]): L4/#AD/B
CCOc1cccc(C2ON=C(c3ccccc3OCC)C2C(=O)NCc2ccc(OC(F)(F)F)cc2)c1 (centres unmarked) [AKC 125]	< (reduced broodsize (250-500 progeny))	L2	L2/Dead(L4)	L2/Dead(L3)	L2								
CCC1CCCCN1c1cc(Oc2ccc(-c3ccccc3)cc2)ncn1 (centres unmarked) [AKC 148]						126%	170 mOD	143%	Dead-Black Husk	278 mOD	˜B (moderate broodsize (100-250 progeny))	˜B (moderate broodsize (100-250 progeny))	Follow-up HTS Run Visual Score (Caenorhabditis elegans [2]): Dead; 5 Day Visual Score V3 (Caenorhabditis elegans [1]; [11]): Dead; 5 Day Visual Score V2 (Caenorhabditis elegans [1]; [12]): Dead; 5 Day Visual Score V1 (Caenorhabditis elegans [1]; [13]): Dead
CC(CCc1ccccc1)Nc1cc(Oc2ccc(-c3ccccc3)cc2)ncn1 (centres unmarked) [AKC 149]						100%	135 mOD	133%	Dead	259 mOD	< (reduced broodsize (250-500 progeny))	< (reduced broodsize (250-500 progeny))	Follow-up HTS Run Visual Score (Caenorhabditis elegans [2]): Dead; 5 Day Visual Score V3 (Caenorhabditis elegans [1]; [11]): Dead; 5 Day Visual Score V2 (Caenorhabditis elegans [1]; [12]): Dead; 5 Day Visual Score V1 (Caenorhabditis elegans [1]; [13]): Dead
FC(F)(F)c1ccccc1CNc1cc(Oc2ccc(-c3ccccc3)cc2)ncn1 [AKC 339]						113%	153 mOD	142%	1AD/B	277 mOD	OK (no effect (˜1000+ progeny))	OK (no effect (˜1000+ progeny))	Follow-up HTS Run Visual Score (Caenorhabditis elegans [2]): B (low broodsize (25-100 progeny)); 5 Day Visual Score V4 (Caenorhabditis elegans [1]; [14]): OK (no effect (˜1000+ progeny)); 5 Day Visual Score V3 (Caenorhabditis elegans [1]; [11]): OK (no effect (˜1000+ progeny)); 5 Day Visual Score V2 (Caenorhabditis elegans [1]; [12]): OK (no effect (˜1000+ progeny)); 5 Day Visual Score V1 (Caenorhabditis elegans [1]; [13]): OK (no effect (˜1000+ progeny))
c1ccc2c(c1)CCN(c1cc(Oc3ccc4ccccc4c3)ncn1)C2 [AKC 342]						92%	124 mOD	106%	L4/AD/B!	207 mOD	OK (no effect (˜1000+ progeny))	OK (no effect (˜1000+ progeny))	Follow-up HTS Run Visual Score (Caenorhabditis elegans [2]): B!-Healthy; 5 Day Visual Score V4 (Caenorhabditis elegans [1]; [14]): ˜B (moderate broodsize (100-250 progeny))
CN(Cc1ccccc1)c1cc(Oc2cccc(F)c2)ncn1 [AKC 344]						119%	161 mOD	131%	L2	256 mOD	OK (no effect (˜1000+ progeny))	OK (no effect (˜1000+ progeny))	5 Day Visual Score V4 (Caenorhabditis elegans [1]; [14]): OK (no effect (˜1000+ progeny)); 5 Day Visual Score V2 (Caenorhabditis elegans [1]; [12]): Dead; 5 Day Visual Score V1 (Caenorhabditis elegans [1]; [13]): Dead
Fc1ccc(Oc2cc(N3CCc4ccccc4C3)ncn2)cc1 [AKC 345]						114%	154 mOD	135%	L1	264 mOD	OK (no effect (˜1000+ progeny))	OK (no effect (˜1000+ progeny))	5 Day Visual Score V4 (Caenorhabditis elegans [1]; [14]): OK (no effect (˜1000+ progeny)); 5 Day Visual Score V3 (Caenorhabditis elegans [1]; [11]): L4; 5 Day Visual Score V2 (Caenorhabditis elegans [1]; [12]): L1; 5 Day Visual Score V1 (Caenorhabditis elegans [1]; [13]): L1
NS(=O)(=O)c1ccc(NC(=O)CN2CCCC(NC(=O)c3cc4ccccc4o3)C2)cc1 (centres unmarked) [AKC 348]						123%	166 mOD	126%	Dead	246 mOD	B (low broodsize (25-100 progeny))	< (reduced broodsize (250-500 progeny))	5 Day Visual Score V3 (Caenorhabditis elegans [1]; [11]): Dead; 5 Day Visual Score V2 (Caenorhabditis elegans [1]; [12]): Dead; 5 Day Visual Score V1 (Caenorhabditis elegans [1]; [13]): Dead
O=C(NCCc1ccccc1F)C1C(c2ccc(F)cc2)=NOC1c1ccc(-c2ccccc2)cc1 (centres unmarked) [AKC 2153]			L1	L1									
